Test results as given in the NIST ThermoML archive (doi:10.1016/j.jct.2012.09.028).

Test: molar heat capacity at constant pressure
Conditions: 101.33 kPa, Crystal, Vacuum adiabatic calorimetry

O=C[C@H](O)[C@@H](O)[C@H](O)CO [D-xylose]
Conditions	molar heat capacity at constant pressure [J/K/mol]
0.5 K	0.0003448
1 K	0.0013
1.5 K	0.003533
1.9 K	0.006645
2 K	0.007825
2.04 K	0.008242
2.083 K	0.008788
2.243 K	0.01097
2.3 K	0.01187
2.472 K	0.01471
2.5 K	0.01512
2.538 K	0.01596
2.632 K	0.01783
2.787 K	0.02124
2.901 K	0.02401
3 K	0.02656
3.078 K	0.02907
3.204 K	0.03288
3.413 K	0.04037
3.5 K	0.04351
3.544 K	0.04525
3.773 K	0.05561
3.939 K	0.06374
4 K	0.06758
4.203 K	0.07931
4.383 K	0.09097
4.5 K	0.1006
4.66 K	0.1124
4.87 K	0.1305
5 K	0.1446
5.179 K	0.1619
5.436 K	0.1916
5.5 K	0.2018
5.775 K	0.2386
6 K	0.2744
6.082 K	0.2866
6.466 K	0.3591
6.5 K	0.3648
6.745 K	0.4181
7 K	0.4752
7.159 K	0.5189
7.497 K	0.6119
7.5 K	0.6076
7.959 K	0.7584
8 K	0.7638
8.353 K	0.8969
8.5 K	0.945
8.863 K	1.101
9 K	1.152
9.3 K	1.292
9.5 K	1.385
9.864 K	1.569
10 K	1.644
10.35 K	1.83
10.97 K	2.212
11 K	2.219
11.52 K	2.546
12 K	2.871
12.19 K	2.736
12.72 K	3.408
13 K	3.59
13.56 K	4.028
14 K	4.364
14.25 K	4.551
15 K	5.182
15.07 K	5.238
15.84 K	5.872
16 K	6.036
16.59 K	6.471
17 K	6.917
17.61 K	7.437
18 K	7.819
18.42 K	8.194
18.99 K	8.794
19 K	8.734
20 K	9.657
20.27 K	9.969
21.17 K	10.74
22.58 K	12.06
23.64 K	13.08
25 K	14.25
25.13 K	14.39
26.29 K	15.41
27.98 K	16.85
29.32 K	17.97
30 K	18.55
31.15 K	19.42
32.68 K	20.56
34.69 K	22.14
35 K	22.47
36.33 K	23.55
38.59 K	25.09
40 K	26.03
40.53 K	26.51
42.93 K	27.98
45 K	29.36
45.13 K	29.46
47.76 K	31.18
50 K	32.58
50.2 K	32.51
53.12 K	34.56
55 K	35.68
55.82 K	36.43
59.09 K	38.3
60 K	38.82
62.21 K	40.2
65 K	41.94
65.77 K	42.39
69.15 K	44.37
70 K	45.05
73.12 K	46.67
75 K	48.14
76.88 K	49.05
80 K	51.21
81.26 K	51.82
85 K	54.27
85.51 K	54.66
90 K	57.3
90.3 K	57.7
95 K	60.32
95.15 K	60.59
100 K	63.33
100.35 K	63.68
105.25 K	66.61
110 K	69.28
110.61 K	69.55
115.43 K	72.27
120 K	75.18
120.64 K	75.36
125.54 K	78.61
130 K	81.02
130.77 K	81.56
135.74 K	84.75
140 K	86.83
140.87 K	87.47
145.76 K	90.11
150 K	92.61
151.03 K	93.15
155.98 K	95.92
160 K	98.36
161.11 K	99.11
166.15 K	102.13
170 K	104.1
171.25 K	104.92
176.34 K	107.5
180 K	109.83
181.48 K	110.56
186.59 K	113.51
190 K	115.56
191.69 K	116.09
196.81 K	119.53
200 K	121.29
201.94 K	122.16
207.17 K	125.24
210 K	127.02
212.26 K	128.07
217.5 K	130.91
220 K	132.76
222.61 K	134.51
227.74 K	137.35
230 K	138.51
232.87 K	140.48
237.95 K	142.93
240 K	144.27
243.02 K	146.31
248.07 K	148.9
250 K	150.04
253.18 K	152.43
258.24 K	154.94
260 K	155.83
263.22 K	158.02
268.36 K	160.56
270 K	161.64
273.15 K	163.47
273.41 K	163.59
278.46 K	166.47
280 K	167.46
283.51 K	169.47
288.47 K	172.37
290 K	173.3
293.61 K	175.31
298.15 K	178.08
298.67 K	177.87
300 K	179.16
303.66 K	181.61
